pIC50: −log10 of the molar value.
What was measured:
ovarian cancer A2780 = experiment: Cell biological activity detection (CyQuant, 72 hours), A2780; format: cell-based, human; settings: A2780 cells, incubation for 72 hours
Description: (§1) A2780 and HCC70 cells were subjected to trypsin digestion treatment, and cell suspensions were respectively transferred to 15 mL centrifuge tubes and centrifuged for 5 min at […]) rpm; supernatant was discarded, and resuspension was carried out in a fresh medium (RPMI 1640+10% FBS), after counting, cells were seeded into a 384-well plate at 2000/well (50 μL of 1640+10% FBS medium was added to the 2nd column and the 23rd column of the 384-well plate, and 50 μL of DPBS was added to the surrounding wells). Incubation was carried out overnight in an incubator (37° C., 5% CO2).
(§2) The compound was added to the well plates the next day. The compound had the highest concentration of 10 μM and was diluted at 1:4, and there were a total of 9 concentrations; and a positive compound Paclitaxel had the highest concentration of 1 μM and was diluted at 1:3, and there were a total of 9 concentrations. The DMSO content in each well was unified to 0.2%. The cell plates were centrifuged for 30 seconds at 800 rpm and placed in an incubator (37° C., 5% CO2) for incubation for 72 hours. On the fourth day, a Cyquant reagent (3×) was formulated according to kit instructions, and formulation was carried out for each 384-well plate according to the following proportions: DPBS 11.568 mL, CyQuant®? Direct nucleic acid stain 72 μL, and CyQuant® Direct background suppressor 360 μL. After uniform mixing, the reagent was placed at room temperature for further use. The cell plates were taken out and equilibrated for 30 min at room temperature, and 25 μL of the Cyquant reagent (3×) per well was dispensed into the cells of the 384-well plates by Multi-drop, and incubation was carried out for more than 60 minutes at 37° C. Acumen plate reading (Acumen setting: an excitation wavelength of 488 nm). IC50 results were analyzed by XLFIT5 from IDBS Company.

[1] = molecular target: T1, CDK12 (aa686-1082)/cyclinK complex (Homo sapiens, UniProt Q9NYV4); experiment: In-vitro enzymatic inhibitory activity testing, CDK12 inhibition assay (Caliper EZ Reader II); format: biochemical; settings: CDK12/cyclinK 50 nM, 180 min at 27° C.; read-out: CDK12 IC50
T1 construct: A CDK12 (aa686-1082)/cyclinK complex (50 nM)
Description: An assay was carried out in a U-bottom 384-well plate (coming, 4512#), and the reaction temperature was 27° C. CDK7/CyclinH was diluted in an assay buffer (20 mM MES PH 6.75, 0.01% Tween 20, 50 ug/mL BSA, 6 mM MgCl2) to afford a corresponding enzyme solution with the 2.4× concentration. CDK2/CyclinE1 was diluted in an assay buffer (20 mM MES PH 6.75, 0.01% Tween 20, 50 ug/mL BSA, 6 mM MgCl2) to afford a corresponding enzyme solution with the 2.4× concentration. CDK9/CyclinT1 was diluted in an assay buffer (20 mM MES PH 6.75, 0.01% Tween 20, 50 ug/mL BSA, 10 mM MgCl2) to afford a corresponding enzyme solution with the 2.4× concentration. CDK12/CyclinK was diluted in an assay buffer (80 mM MES PH 6.5, 0.01% Tween 20, 50 ug/mL BSA, 10 mM MgCl2) to afford a corresponding enzyme solution with the 2.4 concentration. A compound was dissolved in dimethyl sulfoxide (DMSO) at a concentration of 10 mM. During use, the compound was diluted with DMSO into 10 concentration gradients from 25 nM to 500 uM, and respectively diluted by 8.3 folds in the assay buffer to afford a compound solution with a 6× concentration. A polypeptide substrate and ATP were diluted in the assay buffer to afford a polypeptide substrate and ATP mixed solution with a 2.4× concentration. 2 ul of a test compound solution was mixed with 5 ul of the enzyme solution; after incubation for 10 min, 5 ul of the polypeptide substrate and ATP mixed solution was added; incubation was carried out for 180 min at 27° C.; and then, the reaction was terminated by adding 4 uL of EDTA with a concentration of 120 mM to each sample. […]. Specifically, a CDK7/cyclinH/MAT1 complex (6 nM) and a “5-FAMCD K 7 tide” peptide substrate (2 μM, synthetic fluorophore-labeled peptide with the following sequence: 5-FAM-[…], wherein “5-FAM” refers to 5-carboxyfluorescein) were used for a CDK7 inhibition assay. A CDK9/cyclinT1 complex (8 nM) and a “5-FAM-CDK9tide” peptide substrate (2 IM, synthetic fluorophore-labeled peptide with the following sequence: 5-FAM-GSRTPMY-NH2, wherein 5-FAM was as defined above and NH2 represented C-terminal amide) were used for a CDK9 inhibition assay. A CDK12 (aa686-1082)/cyclinK complex (50 nM) and “5-FAM-CDK9tide” (2 μM) as defined above were used for a CDK12 inhibition assay. A CDK2/cyclinE1 complex (0.5 nM) and “5-FAM-CDK7tide” (2 μM) as defined above were used for CDK2 inhibition assay.
(§3) A reaction mixture was analyzed on Caliper EZ Reader II by electrophoretic separation of a fluorogenic substrate and a phosphorylated product. Data were calculated by using GraphPad Prism version 6.0, and IC50 values were adjusted and obtained by using a nonlinear regression model of a dose response curve.

CDK2/cyclinE1 complex = CDK2/cyclinE1 complex (Homo sapiens, UniProt P24941); experiment: In-vitro enzymatic inhibitory activity testing, CDK2 inhibition assay (Caliper EZ Reader II); format: biochemical; settings: CDK2/cyclinE1 0.5 nM, 180 min at 27° C.
Description: CDK12/CyclinK was diluted in an assay buffer (80 mM MES PH 6.5, 0.01% Tween 20, 50 ug/mL BSA, 10 mM MgCl2) to afford a corresponding enzyme solution with the 2.4 concentration. […] A CDK9/cyclinT1 complex (8 nM) and a “5-FAM-CDK9tide” peptide substrate (2 IM, synthetic fluorophore-labeled peptide with the following sequence: 5-FAM-GSRTPMY-NH2, wherein 5-FAM was as defined above and NH2 represented C-terminal amide) were used for a CDK9 inhibition assay. […] A CDK2/cyclinE1 complex (0.5 nM) and “5-FAM-CDK7tide” (2 μM) as defined above were used for CDK2 inhibition assay.
as §3

[2] = molecular target: CDK7/cyclinH/MAT1 complex (Homo sapiens, UniProt P50613); experiment: In-vitro enzymatic inhibitory activity testing, CDK7 inhibition assay (Caliper EZ Reader II); format: biochemical; settings: CDK7/cyclinH/MAT1 6 nM, 180 min at 27° C.
Description: (§4) CDK12/CyclinK was diluted in an assay buffer (80 mM MES PH 6.5, 0.01% Tween 20, 50 ug/mL BSA, 10 mM MgCl2) to afford a corresponding enzyme solution with the 2.4 concentration. A compound was dissolved in dimethyl sulfoxide (DMSO) at a concentration of 10 mM. […] 2 ul of a test compound solution was mixed with 5 ul of the enzyme solution; after incubation for 10 min, 5 ul of the polypeptide substrate and ATP mixed solution was added; incubation was carried out for 180 min at 27° C.; and then, the reaction was terminated by adding 4 uL of EDTA with a concentration of 120 mM to each sample. […] A CDK9/cyclinT1 complex (8 nM) and a “5-FAM-CDK9tide” peptide substrate (2 IM, synthetic fluorophore-labeled peptide with the following sequence: 5-FAM-GSRTPMY-NH2, wherein 5-FAM was as defined above and NH2 represented C-terminal amide) were used for a CDK9 inhibition assay. […] A CDK2/cyclinE1 complex (0.5 nM) and “5-FAM-CDK7tide” (2 μM) as defined above were used for CDK2 inhibition assay.
as §3

[3] = test system: human breast cancer cells HCC70; experiment: Cell biological activity detection (CyQuant, 72 hours), HCC70; format: cell-based; settings: Homo sapiens, HCC70, 72 h, incubation for 72 hours
Description: as §1, §2

CDK9/cyclinT1 complex = CDK9/cyclinT1 complex (Homo sapiens, UniProt P50750); experiment: In-vitro enzymatic inhibitory activity testing, CDK9 inhibition assay (Caliper EZ Reader II); format: biochemical; settings: CDK9/cyclinT1 8 nM, 180 min at 27° C.
Description: as §4, §3

T1 sequence (Q9NYV4 686-1082, species assumed): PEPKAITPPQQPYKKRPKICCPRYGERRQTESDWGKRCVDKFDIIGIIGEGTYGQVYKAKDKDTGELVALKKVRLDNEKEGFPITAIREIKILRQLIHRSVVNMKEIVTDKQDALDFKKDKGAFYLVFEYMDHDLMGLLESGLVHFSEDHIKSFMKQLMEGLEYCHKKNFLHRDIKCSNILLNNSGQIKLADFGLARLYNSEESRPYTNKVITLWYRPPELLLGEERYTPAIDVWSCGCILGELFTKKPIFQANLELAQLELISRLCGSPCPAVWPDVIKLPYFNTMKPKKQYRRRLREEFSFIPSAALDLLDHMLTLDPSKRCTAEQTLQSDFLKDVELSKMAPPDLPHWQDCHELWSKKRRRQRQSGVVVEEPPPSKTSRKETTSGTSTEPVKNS
T1 sequence (O75909 whole entry partner, species assumed, the tested form may be a part): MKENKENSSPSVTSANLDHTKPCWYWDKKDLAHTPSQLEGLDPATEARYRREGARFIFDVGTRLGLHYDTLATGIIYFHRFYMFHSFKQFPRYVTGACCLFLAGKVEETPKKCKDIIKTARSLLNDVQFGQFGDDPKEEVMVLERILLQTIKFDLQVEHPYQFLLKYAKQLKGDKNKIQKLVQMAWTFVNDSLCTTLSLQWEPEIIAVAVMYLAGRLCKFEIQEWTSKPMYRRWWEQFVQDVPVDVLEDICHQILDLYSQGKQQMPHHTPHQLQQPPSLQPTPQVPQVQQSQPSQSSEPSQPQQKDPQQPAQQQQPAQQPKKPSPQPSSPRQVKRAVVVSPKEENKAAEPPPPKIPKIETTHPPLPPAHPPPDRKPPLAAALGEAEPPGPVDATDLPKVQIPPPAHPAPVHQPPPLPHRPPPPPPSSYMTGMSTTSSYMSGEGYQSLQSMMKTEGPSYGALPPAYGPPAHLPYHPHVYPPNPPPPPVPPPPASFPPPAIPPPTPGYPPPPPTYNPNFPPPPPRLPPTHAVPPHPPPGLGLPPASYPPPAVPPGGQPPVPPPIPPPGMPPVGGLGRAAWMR
Chain of CDK7/cyclinH/MAT1 complex (P50613 whole entry, species assumed): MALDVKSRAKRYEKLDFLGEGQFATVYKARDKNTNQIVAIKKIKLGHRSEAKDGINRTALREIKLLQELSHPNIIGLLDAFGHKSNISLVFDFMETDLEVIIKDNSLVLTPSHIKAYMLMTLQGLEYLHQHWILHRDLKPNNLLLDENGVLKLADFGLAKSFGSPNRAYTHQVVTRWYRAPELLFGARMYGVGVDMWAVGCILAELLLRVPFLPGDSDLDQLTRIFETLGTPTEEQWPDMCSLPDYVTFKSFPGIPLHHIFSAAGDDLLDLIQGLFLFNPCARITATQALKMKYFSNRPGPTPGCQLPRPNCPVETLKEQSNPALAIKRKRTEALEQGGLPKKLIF
Chain of CDK7/cyclinH/MAT1 complex (P51946 whole entry partner, species assumed): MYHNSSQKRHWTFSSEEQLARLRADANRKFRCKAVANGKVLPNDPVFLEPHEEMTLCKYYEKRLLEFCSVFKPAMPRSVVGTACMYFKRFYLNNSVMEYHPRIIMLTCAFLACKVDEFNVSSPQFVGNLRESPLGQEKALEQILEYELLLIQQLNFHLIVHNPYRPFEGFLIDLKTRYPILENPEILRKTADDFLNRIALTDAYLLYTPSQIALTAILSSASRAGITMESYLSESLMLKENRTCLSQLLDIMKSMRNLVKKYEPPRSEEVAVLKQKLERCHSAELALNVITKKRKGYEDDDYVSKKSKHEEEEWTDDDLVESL
Chain of CDK7/cyclinH/MAT1 complex (P51948 whole entry partner, species assumed): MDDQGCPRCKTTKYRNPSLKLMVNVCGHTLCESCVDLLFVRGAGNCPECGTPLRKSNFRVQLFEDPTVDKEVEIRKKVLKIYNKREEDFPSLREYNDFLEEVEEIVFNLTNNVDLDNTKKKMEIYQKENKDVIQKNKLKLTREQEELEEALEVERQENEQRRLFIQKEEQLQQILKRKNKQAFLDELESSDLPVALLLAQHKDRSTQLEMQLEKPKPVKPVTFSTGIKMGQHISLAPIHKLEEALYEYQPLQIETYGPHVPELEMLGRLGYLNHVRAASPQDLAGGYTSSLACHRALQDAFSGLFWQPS
Chain of CDK9/cyclinT1 complex (P50750 whole entry, species assumed): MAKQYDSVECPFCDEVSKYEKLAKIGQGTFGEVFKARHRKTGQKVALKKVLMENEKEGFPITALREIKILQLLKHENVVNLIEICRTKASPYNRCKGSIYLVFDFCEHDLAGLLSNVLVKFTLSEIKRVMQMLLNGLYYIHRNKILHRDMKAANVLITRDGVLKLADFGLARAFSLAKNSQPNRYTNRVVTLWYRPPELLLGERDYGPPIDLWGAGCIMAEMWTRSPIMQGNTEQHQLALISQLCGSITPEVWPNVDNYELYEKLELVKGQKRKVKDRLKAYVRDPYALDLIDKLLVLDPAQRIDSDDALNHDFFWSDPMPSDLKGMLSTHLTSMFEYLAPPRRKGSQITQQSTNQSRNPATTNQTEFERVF
Chain of CDK9/cyclinT1 complex (O60563 whole entry partner, species assumed): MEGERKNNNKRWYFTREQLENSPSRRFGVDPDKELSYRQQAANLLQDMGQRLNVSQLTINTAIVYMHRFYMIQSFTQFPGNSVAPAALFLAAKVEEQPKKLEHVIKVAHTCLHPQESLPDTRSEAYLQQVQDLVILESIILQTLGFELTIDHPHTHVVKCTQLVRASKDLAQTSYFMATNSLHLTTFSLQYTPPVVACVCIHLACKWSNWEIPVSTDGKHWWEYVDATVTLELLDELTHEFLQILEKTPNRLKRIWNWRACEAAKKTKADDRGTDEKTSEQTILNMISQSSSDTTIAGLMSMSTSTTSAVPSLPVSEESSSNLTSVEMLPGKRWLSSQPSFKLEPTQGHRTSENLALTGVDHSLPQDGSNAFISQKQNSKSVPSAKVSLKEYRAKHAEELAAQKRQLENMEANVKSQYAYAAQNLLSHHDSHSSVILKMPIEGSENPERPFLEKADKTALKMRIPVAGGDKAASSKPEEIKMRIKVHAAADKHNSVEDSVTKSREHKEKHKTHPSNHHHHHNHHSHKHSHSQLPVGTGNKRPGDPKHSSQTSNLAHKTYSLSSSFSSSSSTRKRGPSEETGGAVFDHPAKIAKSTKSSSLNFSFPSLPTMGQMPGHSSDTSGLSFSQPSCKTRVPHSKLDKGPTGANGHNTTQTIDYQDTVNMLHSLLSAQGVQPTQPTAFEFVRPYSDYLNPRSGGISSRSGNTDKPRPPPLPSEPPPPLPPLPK

pIC50 (ovarian cancer A2780; Homo sapiens, A2780, 72 h)	pIC50 [1]	pIC50 (CDK2/cyclinE1 complex)	pIC50 [2]	pIC50 (CDK9/cyclinT1 complex)	pIC50 (ovarian cancer A2780)	Structure (SMILES)	pIC50 [3]
> 7.70	< 4.30	4.30 to 5.30	> 7.70	< 4.30	–	CC(O)[C@H](C)Nc1ncc(C(F)(F)F)c(-c2c[nH]c3c(P(C)(C)=O)cccc23)n1 (mixture of isomers) [Compound 128, (3-(2-(((2S)-3-hydroxybutan-2-yl)amino)-5-(trifluoromethyl)pyrimidin-4-yl)-1H-indole-7-yl)dimethylphosphine oxide]	6.70 to 7.70
5.30 to 6.70	5.30 to 6.70	5.30 to 6.70	6.70 to 7.70	4.30 to 5.30	–	FC(F)(F)c1cnc(NC2CCCNCC2)nc1-c1c[nH]c2nc(N3CCOCC3)ccc12 (single isomer, unassigned) [Compound 48]	5.30 to 6.70
–	< 4.30	< 4.30	5.30 to 6.70	< 4.30	4.30 to 5.30	FC(F)(F)c1cnc(NC2CCC3CNCC32)nc1-c1c[nH]c2nc(N3CCOCC3)ccc12 (single isomer, unassigned) [Compound 56]	–
> 7.70	–	5.30 to 6.70	> 7.70	–	–	CP(C)(=O)c1cccc2c(-c3nc(NC4CC(F)(F)CC4O)ncc3C(F)(F)F)c[nH]c12 (single isomer, unassigned) [Compound 191]	6.70 to 7.70
> 7.70	5.30 to 6.70	4.30 to 5.30	> 7.70	4.30 to 5.30	–	Cc1noc(C)c1-c1ccc2c(-c3nc(N[C@@H]4CCC45CNC5)ncc3C(F)(F)F)c[nH]c2n1 [Compound 36, (R)—N-(4-(6-(3,5-dimethylisoxazol-4-yl)-1H-pyrrolo[2,3-b]pyridin-3-yl)-5-(trifluoromethyl)pyrimidin-2-yl)-2-azaspiro[3.3]heptan-5-amine]	–
5.30 to 6.70	–	–	–	–	–	C[C@H]1C[C@H](Nc2ncc(C(F)(F)F)c(-c3c[nH]c4nc(N5CCOCC5)ccc34)n2)CCN1 [Compound 53, N-((2S,4R)-2-methylpiperidin-4-yl)-4-(6-morpholinyl-1H-pyrrolo[2,3-b]pyridin-3-yl)-5-(trifluoromethyl)pyrimidin-2-amine]	5.30 to 6.70
5.30 to 6.70	4.30 to 5.30	4.30 to 5.30	> 7.70	4.30 to 5.30	–	N#Cc1ccc2c(-c3nc(N[C@@H]4CCC45CNC5)ncc3C(F)(F)F)c[nH]c2n1 [Compound 61, (R)-3-(2-((2-azaspiro[3.3]heptan-5-yl)amino)-5-(trifluoromethyl)pyrimidin-4-yl)-1H-pyrrolo[2,3-b]pyridine-6-carbonitrile]	–
–	< 4.30	5.30 to 6.70	6.70 to 7.70	< 4.30	–	COc1cc(P(C)(C)=O)c2[nH]cc(-c3nc(N[C@@H](C)CO)ncc3C(F)(F)F)c2c1 [Compound 104]	–
–	4.30 to 5.30	5.30 to 6.70	6.70 to 7.70	4.30 to 5.30	–	COc1ccc2c(-c3nc(N[C@@H](C)CO)ncc3C(F)(F)F)c[nH]c2c1P(C)(C)=O [Compound 106, (S)-(3-(2-((1-hydroxypropan-2-yl)amino)-5-(trifluoromethyl)pyrimidin-4-yl)-6-methoxy-1H-indole-7-yl)dimethylphosphine oxide]	–
–	< 4.30	4.30 to 5.30	6.70 to 7.70	< 4.30	–	CC1([C@@H](CO)Nc2ncc(C(F)(F)F)c(-c3c[nH]c4c(P(C)(C)=O)cccc34)n2)CC1 [Compound 112, (S)-(3-(2-((2-hydroxy-1-(1-methylcyclopropyl)ethyl)amino)-5-(trifluoromethyl)pyrimidin-4-yl)-1H-indole-7-yl)dimethylphosphine oxide]	–
–	< 4.30	4.30 to 5.30	6.70 to 7.70	< 4.30	–	CP(C)(=O)c1cccc2c(-c3nc(N[C@@H](CO)C4CCC4)ncc3C(F)(F)F)c[nH]c12 [Compound 113, (R)-(3-(2-((1-cyclobutyl-2-hydroxyethyl)amino)-5-(trifluoromethyl)pyrimidin-4-yl)-1H-indole-7-yl)dimethylphosphine oxide]	–
–	< 4.30	5.30 to 6.70	5.30 to 6.70	< 4.30	–	C[C@@H](CO)Nc1ncc(F)c(-c2c[nH]c3c(P(C)(C)=O)cccc23)n1 [Compound 157, (S)-(3-(5-fluoro-2-((1-hydroxypropan-2-yl)amino)pyrimidin-4-yl)-1H-indole-7-yl)dimethylphosphine oxide]	–
–	–	–	–	–	–	CC(C)(C)[C@H](CO)Nc1ncc(C(F)(F)F)c(-c2c[nH]c3c(P(C)(C)=O)cccc23)n1 [Compound 176]	> 7.70
–	< 4.30	< 4.30	4.30 to 5.30	< 4.30	–	C[C@@H](CO)Nc1ncc(C(N)=O)c(-c2c[nH]c3c(P(C)(C)=O)cccc23)n1 [Compound 180, (S)-4-(7-(dimethylphosphoryl)-1H-indole-3-yl)-2-((1-hydroxypropan-2-yl)amino)pyrimidine-5-carboxamide]	–
–	< 4.30	< 4.30	4.30 to 5.30	< 4.30	–	C[C@@H](CO)Nc1nccc(-c2c[nH]c3c(P(C)(C)=O)cccc23)n1 [Compound 186]	–

— US20240124504A1, “AROMATIC HETEROCYCLIC COMPOUND, AND PHARMACEUTICAL COMPOSITION AND APPLICATION THEREOF” (GT APEIRON THERAPEUTICS LIMITED, priority 2020, published 2024)
